Measured values reported in patent publication US9969716B2, “Indole derivatives as modulators of methyl modifying enzymes, compositions and uses thereof” (Constellation Pharmaceuticals, Inc., priority 2013, dated 2018).

Tests used:
Y641N EZH2 = Y641N EZH2 (Homo sapiens, UniProt Q15910, Y641N); assay: Y641N EZH2 assay (as EZH2 assay, H3K27Me2 oligonucleosomes as substrate); format: biochemical
Protocol: EZH2 Assay: Assays were carried out by mixing rPRC2 together with biotinylated oligonucleosome substrates in the presence of the radio-labeled enzyme co-factor, S-adenosyl-L-methionine (^3H SAM) (Perkin Elmer) and monitoring the enzymatically mediated transfer of tritiated methyl groups from ^3H SAM to histone lysine residues. The amount of resulting tritiated methyl histone product was measured by first capturing the biotinylated oligonucleosomes in streptavidin (SAV) coated FlashPlates (Perkin Elmer), followed by a wash step to remove un-reacted ^3H SAM, and then counting on a TopCount NXT 384 well plate scintillation counter (Perkin Elmer). The final assay conditions for EZH2 were as follows: 50 mM Tris Buffer pH 8.5, 1 mM DTT, 69 μM Brij-35 detergent, 5.0 mM MgCl2, 0.1 mg/mL BSA, 0.2 μM ^3H SAM, 0.2 μM biotinylated oligonucleosomes, 3.6 μM H3K27me3 peptide and 2 nM EZH2.
A 12.5 μL volume of the HMT enzyme, H3K27me3 peptide and oligonucleosome substrate in assay buffer was added to each well of the assay plate using a Multidrop Combi (ThermoFisher). Compounds were pre-incubated with the enzyme for 20 min, followed by initiation of the methyltransferase reaction by addition of 12.5 μL of ^3H SAM in assay buffer (final volume=25 μL). The final concentrations of compounds ranged from a top default concentration of 80 μM down to 0.16 μM in ten 2-fold dilution steps. Reactions were carried out for 60 minutes and quenched with 20 μL per well of 1.96 mM SAH, 50 mM Tris pH 8.5, 200 mM EDTA. Stopped reactions were transferred to SAV coated Flashplates (Perkin Elmer), incubated for 120 min, washed with a plate washer, and then read on the TopCount NXT (1.0 min/well) to measure the amount of methyl histone product formed during the reaction.

EZH2 = EZH2 (Homo sapiens, UniProt Q15910); assay: EZH2 assay (rPRC2, 3H SAM methyl transfer to biotinylated oligonucleosomes, FlashPlate); format: biochemical
EZH2, sequence (Q15910 whole entry): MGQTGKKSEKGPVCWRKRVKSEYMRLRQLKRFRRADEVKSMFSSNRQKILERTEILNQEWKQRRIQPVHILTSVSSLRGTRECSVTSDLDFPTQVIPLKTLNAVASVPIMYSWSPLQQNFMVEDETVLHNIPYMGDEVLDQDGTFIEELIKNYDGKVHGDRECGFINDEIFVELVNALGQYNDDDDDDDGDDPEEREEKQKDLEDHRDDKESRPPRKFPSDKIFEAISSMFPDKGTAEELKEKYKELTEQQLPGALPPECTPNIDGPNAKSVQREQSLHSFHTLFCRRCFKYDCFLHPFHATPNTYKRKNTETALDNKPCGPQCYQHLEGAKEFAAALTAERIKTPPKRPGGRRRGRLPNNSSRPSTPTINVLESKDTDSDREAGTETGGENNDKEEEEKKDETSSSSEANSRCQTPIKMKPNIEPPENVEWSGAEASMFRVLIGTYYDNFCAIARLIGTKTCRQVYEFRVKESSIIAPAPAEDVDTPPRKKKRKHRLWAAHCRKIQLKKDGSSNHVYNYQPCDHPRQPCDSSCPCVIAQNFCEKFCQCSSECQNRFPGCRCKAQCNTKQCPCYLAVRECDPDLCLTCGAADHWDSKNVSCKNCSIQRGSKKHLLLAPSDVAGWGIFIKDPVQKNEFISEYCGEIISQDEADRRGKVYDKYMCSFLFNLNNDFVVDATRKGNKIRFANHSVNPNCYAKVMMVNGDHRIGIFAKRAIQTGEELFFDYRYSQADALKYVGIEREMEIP
EZH2, sequence (O75530 whole entry partner): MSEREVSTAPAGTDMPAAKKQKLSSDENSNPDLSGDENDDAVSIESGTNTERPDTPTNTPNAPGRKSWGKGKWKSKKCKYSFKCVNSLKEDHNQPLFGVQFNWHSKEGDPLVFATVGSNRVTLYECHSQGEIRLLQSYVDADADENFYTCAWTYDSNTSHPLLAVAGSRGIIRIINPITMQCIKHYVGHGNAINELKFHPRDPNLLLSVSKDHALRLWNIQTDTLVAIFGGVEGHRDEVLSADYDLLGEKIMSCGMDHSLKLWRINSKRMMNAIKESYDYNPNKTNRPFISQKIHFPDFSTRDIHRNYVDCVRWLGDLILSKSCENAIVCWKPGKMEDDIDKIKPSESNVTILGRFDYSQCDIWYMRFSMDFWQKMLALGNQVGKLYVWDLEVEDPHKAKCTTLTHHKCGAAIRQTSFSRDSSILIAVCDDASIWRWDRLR
EZH2, sequence (Q15022 whole entry partner): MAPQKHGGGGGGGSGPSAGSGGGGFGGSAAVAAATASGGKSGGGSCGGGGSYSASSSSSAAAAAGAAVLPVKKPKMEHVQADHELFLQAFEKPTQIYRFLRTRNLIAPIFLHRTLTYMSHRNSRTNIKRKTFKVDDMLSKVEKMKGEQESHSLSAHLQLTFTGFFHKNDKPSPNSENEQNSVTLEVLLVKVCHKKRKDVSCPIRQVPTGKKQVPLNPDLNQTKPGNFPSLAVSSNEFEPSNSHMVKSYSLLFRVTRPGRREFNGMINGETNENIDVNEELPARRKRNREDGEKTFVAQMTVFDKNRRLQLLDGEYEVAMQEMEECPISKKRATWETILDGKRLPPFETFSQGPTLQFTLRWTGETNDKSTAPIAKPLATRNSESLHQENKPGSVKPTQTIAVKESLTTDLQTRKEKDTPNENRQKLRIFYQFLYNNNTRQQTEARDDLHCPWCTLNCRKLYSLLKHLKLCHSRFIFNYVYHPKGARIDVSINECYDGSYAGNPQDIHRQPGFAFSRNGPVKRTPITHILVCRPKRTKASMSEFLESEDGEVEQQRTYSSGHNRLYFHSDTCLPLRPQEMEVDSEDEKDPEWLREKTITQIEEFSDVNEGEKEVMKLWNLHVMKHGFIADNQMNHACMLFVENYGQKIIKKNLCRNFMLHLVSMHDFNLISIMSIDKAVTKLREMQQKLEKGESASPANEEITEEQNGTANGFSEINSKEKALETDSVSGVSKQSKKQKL
Procedure, shortened: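 rPRC2 (2 nM EZH2) with 0.2 μM biotinylated oligonucleosomes, 3.6 μM H3K27me3 peptide, 0.2 μM 3H SAM in pH 8.5 Tris buffer; compounds (80 to 0.16 μM) preincubated 20 min, reaction 60 min, SAH/EDTA quench. Methylated product captured on streptavidin FlashPlates, scintillation counted.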

[1] = test system: H3K27me3 mark in HeLa cells; assay: H3K27me3 Alpha Hela Assay (AlphaLISA); format: cell-based; conditions: Homo sapiens, 72 hrs, read-out: EZH2_Cell_H3K27me3_Alpha_HeLa (EC50_K27me3)
Procedure, shortened: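 Ten-dose 3-fold series on HeLa cells (1,000/well, 10% DMEM), 72 hrs at 37° C. Lysis, histone extraction, then AlphaLISA with anti-K27me3 acceptor beads, biotinylated anti-H3 C-ter antibody (3 nM final) and streptavidin donor beads (20 μg/mL final); duplicate plate used for viability. DMSO-normalized dose-response curves fitted.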

Y641N EZH2, sequence (Q15910 whole entry Y641N): as the sequence (Q15910 whole entry) above, with Y641N counted along it
Y641N EZH2, sequence (O75530 whole entry partner): as the sequence (O75530 whole entry partner) above
Y641N EZH2, sequence (Q15022 whole entry partner): as the sequence (Q15022 whole entry partner) above

SMILES	IC50 (Y641N EZH2) [nM]	IC50 (EZH2) [nM]	EC50 [1] [nM]
COc1cc(C)[nH]c(=O)c1CNC(=O)c1c(C)n([C@H](C)C2CCN(CC(C)(C)C(F)(F)F)CC2)c2ccccc12 [Compound 136]	100 to 1000	100 to 1000	< 400
COc1cc(C)[nH]c(=O)c1CNC(=O)c1c(C)n([C@H](C)C2CCN(S(=O)(=O)c3ccc(F)cc3)CC2)c2ccccc12 [Compound 137]	< 100	< 100	< 400
Cc1cc(Cl)c(CNC(=O)c2c(C)n([C@H](C)C3CCN(CC(C)(F)F)CC3)c3ccccc23)c(=O)[nH]1 [Compound 105]	< 100	< 100	< 400
Cc1cc(C)c(CNC(=O)c2c(C)n([C@H](C)C3CCN(S(=O)(=O)C4CCN(C)CC4)CC3)c3ccccc23)c(=O)[nH]1 [Compound 139]	< 100	< 100	< 400
COc1cc(C)[nH]c(=O)c1CNC(=O)c1c(C)n([C@H](C)C2CCN(Cc3c(F)cccc3F)CC2)c2ccccc12 [Compound 150]	< 100	< 100	400 to 2000
COc1cc(C)[nH]c(=O)c1CNC(=O)c1c(C)n([C@H](C)C2CCN(c3ncc(F)cn3)CC2)c2ccccc12 [Compound 120]	< 100	< 100	< 400
COc1cc(C)[nH]c(=O)c1CNC(=O)c1c(C)n([C@H](C)C2CCN(CC(C)(F)F)CC2)c2ccccc12 [Compound 101, (R)-1-(1-(1-(2,2-difluoropropyl)piperidin-4-yl)ethyl)-N-((4-methoxy-6-methyl-2-oxo-1,2-dihydropyridin-3-yl)methyl)-2-methyl-1H-indole-3-carboxamide]	< 100	< 100	< 400
COc1cc(C)[nH]c(=O)c1CNC(=O)c1c(C)n([C@H](C)C2CCN(C[C@H](O)C(F)(F)F)CC2)c2ccccc12 [Compound 156]	< 100	< 100	400 to 2000
CCS(=O)(=O)N1CCC([C@@H](C)n2c(C)c(C(=O)NCc3c(Cl)cc(C)[nH]c3=O)c3ccccc32)CC1 [Compound 107]	< 100	< 100	< 400
COc1cc(C)[nH]c(=O)c1CNC(=O)c1c(C)n([C@H](C)C2CCN(c3ncc(Br)cn3)CC2)c2ccccc12 [Compound 124, (R)-1-(1-(1-(5-bromopyrimidin-2-yl)piperidin-4-yl)ethyl)-N-((4-methoxy-6-methyl-2-oxo-1,2-dihydropyridin-3-yl)methyl)-2-methyl-1H-indole-3-carboxamide]	< 100	< 100	< 400
COc1cc(C)[nH]c(=O)c1CNC(=O)c1c(C)n([C@H](C)C2CCN(Cc3ccc(F)cc3)CC2)c2ccccc12 [Compound 122]	< 100	< 100	< 400
COc1cc(C)[nH]c(=O)c1CNC(=O)c1c(C)n([C@H](C)C2CCN(CC3(F)CC3)CC2)c2ccccc12 [Compound 119]	< 100	< 100	< 400
COc1cc(C)[nH]c(=O)c1CNC(=O)c1c(C)n([C@H](C)C2CCN(C(=O)C3(C(F)(F)F)CCC3)CC2)c2ccccc12 [Compound 104]	< 100	< 100	< 400
CCN(CC)C(=O)CN1CCC([C@@H](C)n2c(C)c(C(=O)NCc3c(OC)cc(C)[nH]c3=O)c3ccccc32)CC1 [Compound 168]	< 100	< 100	> 2000
COc1cc(C)[nH]c(=O)c1CNC(=O)c1c(C)n([C@H](C)C2CCN(C(=O)C3CC3)CC2)c2ccccc12 [Compound 157]	< 100	< 100	400 to 2000
Cc1cc(C)c(CNC(=O)c2c(C)n([C@H](C)C3CCN(c4ccc(CN5CCOCC5)cc4)CC3)c3ccccc23)c(=O)[nH]1 [Compound 160]	< 100	< 100	400 to 2000
Cc1cc(C)c(CNC(=O)c2c(C)n([C@H](C)C3CCN(S(=O)(=O)C4CN(C)C4)CC3)c3ccccc23)c(=O)[nH]1 [Compound 147]	< 100	< 100	400 to 2000
